Experiment [1] has as its system SHI. Nature of the experiment: Growth inhibition by payloads, CellTiter-Glo cell viability. The class given is cell-based. Particulars: MDR −. How it is done:
(§1) The cytotoxicity of the compounds was evaluated using the CellTiter-Glo Luminescent Cell Viability Assay (Promega Cat # G7573) as described in the manufacturer's instructions (Arduengo, M., Cell Notes, 2003, 5:15-17). This assay contains a reagent that lyses cells and generates a “glow-type” luminescent signal proportional to the amount of adenosine triphosphate (ATP) present, which is a measure of cell growth.
(§2) Cells were seeded at 1000 cells per well in 50 μL of culture media into tissue culture 96-well flat-bottom plates. The perimeter wells of the plate were not used and 200 μL of media was added to the perimeter wells to prevent evaporation during incubation. 50 μL of the compound tested at twice the final concentration were then added to the wells in triplicate. Plates were incubated at 37° C., 5% CO2 for 72 hours before adding 100 μL CellTiter-Glo reagent to each well (excluding perimeter wells). Plates were then incubated at room temperature on a shaker for 10 minutes. After incubation, 100 μL of the supernatants were transferred to a solid white 96-well plate and luminescence was measured with a spectrophotometer. Percent viability was calculated based on untreated control: % viability=(treated/untreated)*100.
(§3) GI50: Concentration of compound required for 50% cell growth inhibition.
(§4) The cytotoxic activity of compounds CLT-D201, CLT-D501, CLT-D601 was tested against various cell lines in comparison with a pyrrolobenzodiazepine dimer labeled as PBD1 (structurally identical to SGD-1882, Spirogen Ltd.), having a formula: […]
Background: Cellular ATP, detected with luciferase, serves as a proxy for viable cell number.

Experiment [2] concerns HL-60. Described as above. The class given is cell-based. Particulars: Homo sapiens, MDR −. How it is done: as §1, §2, §3, §4
The subject of experiment [3] is THP-1. Described as above. In kind it is cell-based. Particulars: Homo sapiens, MDR −. On the procedure: as §1, §2, §3, §4
Experiment [4] relates to TF-1. The description is as above. The note with it: Homo sapiens, MDR +. In kind it is cell-based. How it is done: as §1, §2, §3, §4
In experiment [5] the test system is HEL92.1.7. The description is as above. The class given is cell-based. Particulars: Homo sapiens, HEL 92.1.7, MDR +. On the procedure:
as §1, §2, §3, §4

For experiment [6], the system named is KG1. The description is as above. Particulars: Homo sapiens, KG-1, MDR +. The class given is cell-based. How it is done:
as §1, §2, §3, §4

The subject of experiment [7] is OCI-AML5. The experiment is described as above. In kind it is cell-based. Particulars: Homo sapiens, OCI-AML-5, MDR NA. On the procedure: as §1, §2, §3, §4
The subject of experiment [8] is HNT-34. The experiment is described as above. In kind it is cell-based. The note with it: MDR +/−. How it is done:
as §1, §2, §3, §4

For experiment [9], the system named is HL60 tumor cells. The experiment can be described thus: Orthotopic HL60 AML xenograft model. The class given is in vivo, NOD/SCID mice. The note with it: 1 mg/kg, day 23 after inoculation. On the procedure: Orthotopically engrafted HL60 tumor-bearing mice were treated with unconjugated C0 (1 mg/Kg) antibody and control ADC (3 mg/Kg) as compared with mice treated with C6-CLT-D202-ADC (3 mg/Kg). The percentage of human HL60 tumor cells in the bone marrow (left panel) and in the peripheral blood (right panel) is shown, the median bar and interquartile error bars are denoted for N=4-6 mice. The table (bottom) indicates the median, minimum, maximum, and interquartile percentage of human HL60 cells in the bone marrow and peripheral blood of treated mice.
Female 6-8 week-old NOD/SCID mice were sub-lethally irradiated with 2.5 Gy, and 5 million HL60 tumors were injected intravenously at one day post-irradiation into the mice. Following 6 days of tumor cell inoculation (˜0.1-1% engraftment in the bone marrow), mice were dosed 3 times, and once per week (q7DX3) with 3 mg/Kg of C6-CLT-D202 ADC or with the same amount of control C0-ADC. Following 23 days of tumor cell inoculation, bone, spleen, and peripheral blood were collected from the treated mice and total hematopoietic cells were isolated. The percentage of human cells in these tissues was determined by flow cytometry using anti-human CD33 and CD45 antibodies. Data were analyzed by Flowjo software, and plotted with Prism software.
Greater than 90% Tumor Growth Inhibition (TGI) was observed after administration with C6-CLT-D202 ADC.

≈ marks a conversion by molar mass, not a printed value.

One may read the IC50 as the midpoint of a concentration-inhibition curve.

As to `COc1cc2c(cc1OCCCOc1cc3c(cc1OC)C(=O)N1Cc4ccccc4CC1C=N3)N=CC1Cc3ccccc3CN1C2=O` (stereo not drawn) [CLT-D201], the IC50 in experiment [1] was 0.0211 ng/mL (≈ 0.0321 nM); in [2] it was 0.002 ng/mL (≈ 0.00305 nM); in [3], 0.0291 ng/mL (≈ 0.0443 nM); in experiment [4] it was 1.29 ng/mL; in experiment [5], 0.0404 ng/mL; in [6], 2.45 ng/mL. The IC50 was determined as 0.00823 ng/mL (≈ 0.0125 nM) in experiment [7] and 0.014 ng/mL (≈ 0.0213 nM) in experiment [8].
Turning to `COc1ccc(C2=CN3C(=O)c4cc(OC)c(OCCCOc5cc6c(cc5OC)C(=O)N5C=C(c7ccc(N)cc7)C[C@@]5(C)C=N6)cc4N=C[C@]3(C)C2)cc1` [PBD1], the IC50 in experiment [1] was 0.00547 ng/mL (≈ 0.00725 nM); in experiment [2] it was 0.0028 ng/mL (≈ 0.00371 nM); in [3], 0.0126 ng/mL (≈ 0.0167 nM); in [4], 0.447 ng/mL; in experiment [5] it was 0.00387 ng/mL; in experiment [6], 0.66 ng/mL. Further, the values for the IC50 in [7] and in experiment [8] were 0.00208 ng/mL (≈ 0.00276 nM) and 0.00149 ng/mL (≈ 0.00198 nM), respectively.
Consider Palivizumab [C0], for which, in [9] (Blood), the “percentage of human HL60 cells, 25% Percentile” value came to 36.025%; the “percentage of human HL60 cells, 75% Percentile” value came out at 68.1%; the “percentage of human HL60 cells, Median” value stood at 56.5%; the “percentage of human HL60 cells, Minimum” value was 30.4%. In addition, in experiment [9] (Bone marrow), the “percentage of human HL60 cells, 25% Percentile” value is recorded as 60.85%; the “percentage of human HL60 cells, 75% Percentile” value was determined as 85.8%; the “percentage of human HL60 cells, Median” value was found to be 72.95%; the “percentage of human HL60 cells, Minimum” value amounted to 55.9%.
